From patent publication US8324390B2, “Tetrazole-substituted anthranilamides as pesticides” (Bayer CropScience AG, priority 2008, dated 2012)
Read-outs that look alike come from different tables or passages of the source.

Assays:
[1] = log P determination by HPLC (EEC Directive 79/831 Annex V.A8); format: physicochemical
Description: The measurements were carried out using an Agilent 1100 LC system with a 50*4.6 Zorbax Eclipse C18 1.8 μm column (oven temperature 55° C., flow rate 2.0 ml/min).
The following mobile phases were used:
Mobile phase A: acetonitrile+1000 μl of formic acid/l
Mobile phase B: Millipore water+900 μl of formic acid/l

[2] = test system: caterpillars of the armyworm (Spodoptera frugiperda); assay: Spodoptera frugiperda test (SPODFR spray treatment); format: in vivo; details: Spodoptera frugiperda, foliar, read-out: effect in % (caterpillars killed)
From the text: Solvent: 78.0 parts by weight of acetone

[3] = test system: larvae of the mustard beetle (Phaedon cochleariae); assay: Phaedon test (PHAECO spray treatment); details: Phaedon cochleariae, in Brassica rapa, foliar, read-out: effect in % (beetle larvae killed)
[4] = reversed-phase HPLC, Zorbax Eclipse C18 column, by HPLC according to EEC Directive 79/831 Annex V.A8, read-out: log P
[5] = application rate 100 g/ha, maize leaf discs

Row | SMILES | chromatographic logP [1, 4] | chromatographic logP ([1]; log P) | pest or weed control at 100 g/ha ([2]; in Zea mays) [%] | pest or weed control at 100 g/ha [3] [%] | pest or weed control at 100 g/ha [2, 5] [%]
1 | CCNC(=O)c1cc(Cl)cc(C)c1NC(=O)c1cc(Cn2nnc(C(F)F)n2)nn1-c1ncccc1Cl [Example 257] |  | 2.69 | ≥ 80 | ≥ 80 | 
2 | Cc1cc(Cl)cc(C(=O)NC(C)(C)C)c1NC(=O)c1cc(Cn2nnc(C(F)F)n2)nn1-c1ncccc1Cl [Example 258] |  | 3.32 | ≥ 80 | ≥ 80 | 
3 | Cc1cc(Cl)cc(C(=O)NC2CCC2)c1NC(=O)c1cc(Cn2nnc(C(F)F)n2)nn1-c1ncccc1Cl [Example 260] |  | 3.09 | ≥ 80 | ≥ 80 | 
4 | Cc1cc(Cl)cc(C(=O)NCC#N)c1NC(=O)c1cc(Cn2nnc(C(F)F)n2)nn1-c1ncccc1Cl [Example 261] |  | 2.5 | ≥ 80 | ≥ 80 | 
5 | CNC(=O)c1cc(C#N)cc(C)c1NC(=O)c1cc(Cn2nnc(C(F)F)n2)nn1-c1ncccc1Cl [Example 262] |  | 2.17 | ≥ 80 | ≥ 80 | 
6 | Cc1cc(C#N)cc(C(=O)NC(C)(C)C)c1NC(=O)c1cc(Cn2nnc(C(F)F)n2)nn1-c1ncccc1Cl [Example 267] |  | 2.88 | ≥ 80 | ≥ 80 | 
7 | Cc1cc(I)cc(C(=O)NC(C)C)c1NC(=O)c1cc(Cn2nnc(C(F)F)n2)nn1-c1ncccc1Cl [Example 277] |  | 3.2 | ≥ 80 | ≥ 80 | 
8 | Cc1cc(I)cc(C(=O)NCC2CC2)c1NC(=O)c1cc(Cn2nnc(C(F)F)n2)nn1-c1ncccc1Cl [Example 279] |  | 3.27 | ≥ 80 | ≥ 80 | 
9 | CNC(=O)c1cc(Cl)cc(Cl)c1NC(=O)c1cc(Cn2nnc(C(F)F)n2)nn1-c1ncccc1Cl [Example 282] |  | 2.48 | ≥ 80 | ≥ 80 | 
10 | CC(C)(C)NC(=O)c1cc(Cl)cc(Cl)c1NC(=O)c1cc(Cn2nnc(C(F)F)n2)nn1-c1ncccc1Cl [Example 287] |  | 3.28 | ≥ 80 | ≥ 80 | 
11 | O=C(NC1CCC1)c1cc(Cl)cc(Cl)c1NC(=O)c1cc(Cn2nnc(C(F)F)n2)nn1-c1ncccc1Cl [Example 291] |  | 3.06 | ≥ 80 | ≥ 80 | 
12 | Cc1cc(Br)cc(C(=O)NC(C)C2CC2)c1NC(=O)c1cc(Cn2nnc(C(F)F)n2)nn1-c1ncccc1Cl (stereo not drawn) [Example 297] |  | 3.36 | ≥ 80 | ≥ 80 | 
13 | CSC[C@H](C)NC(=O)c1cc(Cl)cc(C)c1NC(=O)c1cc(Cn2nnc(C(F)F)n2)nn1-c1ncccc1Cl [Example 302] |  | 3.18 | ≥ 80 | ≥ 80 | 
14 | C=CCNC(=O)c1cc(Cl)cc(C)c1NC(=O)c1cc(Cn2nnc(C(F)(F)F)n2)nn1-c1ncccc1Cl [Example 319] |  | 3.34 | ≥ 80 | ≥ 80 | 
15 | Cc1cc(C#N)cc(C(=O)NC(C#N)C2CC2)c1NC(=O)c1cc(Cn2nnc(C(F)(F)F)n2)nn1-c1ncccc1Cl (stereo not drawn) [Example 321] |  | 3.05 | ≥ 80 | ≥ 80 | 
16 | CNC(=O)c1cc(Cl)cc(C)c1NC(=O)c1cc(Cn2nnc(C(F)(C(F)(F)F)C(F)(F)F)n2)nn1-c1ncccc1Cl [Example 357] |  | 3.72 | ≥ 80 | ≥ 80 | 
17 | Cc1cc(Cl)cc(C(=O)NCC#N)c1NC(=O)c1cc(Cn2nnc(C(F)(C(F)(F)F)C(F)(F)F)n2)nn1-c1ncccc1Cl [Example 358] |  | 3.62 | ≥ 80 | ≥ 80 | 
18 | CCNC(=O)c1cc(Cl)cc(C)c1NC(=O)c1cc(Cn2nnc(C(F)(C(F)(F)F)C(F)(F)F)n2)nn1-c1ncccc1Cl [Example 364] |  | 3.96 | ≥ 80 | ≥ 80 | 
19 | Cc1cc(Cl)cc(C(=O)NC2CC2)c1NC(=O)c1cc(Cn2nnc(C(F)(C(F)(F)F)C(F)(F)F)n2)nn1-c1ncccc1Cl [Example 365] |  | 3.94 | ≥ 80 | ≥ 80 | 
20 | CCNC(=O)c1cc(C#N)cc(C)c1NC(=O)c1cc(Cn2nnc(C(F)(C(F)(F)F)C(F)(F)F)n2)nn1-c1ncccc1Cl [Example 369] |  | 3.57 | ≥ 80 | ≥ 80 | 

More lines, main results first:

Row | chromatographic logP [1, 4] | SMILES | chromatographic logP ([1]; log P) | pest or weed control at 100 g/ha ([2]; in Zea mays) [%] | pest or weed control at 100 g/ha [3] [%] | pest or weed control at 100 g/ha [2, 5] [%]
21 | 3.32 | CNC(=O)c1cc(Cl)cc(C)c1NC(=O)c1cc(Cn2nnc(C(F)(F)F)n2)nn1-c1ccccc1F [Example 311] |  |  | ≥ 80 | ≥ 80
22 | 3.1 | Cc1cc(C#N)cc(C(=O)NC(C)C)c1NC(=O)c1cc(Cn2nnc(C(F)(F)F)n2)nn1-c1ncccc1Br [Example 323] |  |  | ≥ 80 | ≥ 80
23 | 2.72 | Cc1cc(Cl)cc(C(=O)NCC#N)c1NC(=O)c1cc(Cn2nnc(C(F)(F)F)n2)nn1-c1ncccc1Br [Example 325] |  |  | ≥ 80 | ≥ 80
24 | 3.4 | CNC(=O)c1cc(C#N)cc(C)c1NC(=O)c1cc(Cn2nnc(C(F)(F)F)n2)nn1-c1cccc(Cl)c1Cl [Example 327] |  |  | ≥ 80 | ≥ 80
25 | 3.01 | CNC(=O)c1cc(Cl)cc(C)c1NC(=O)c1cc(Cn2nnc(C(F)(F)F)n2)nn1-c1ncccc1Br [Example 331] |  |  | ≥ 80 | ≥ 80
26 | 3.92 | Cc1cc(C#N)cc(C(=O)NC(C)(C)C)c1NC(=O)c1cc(Cn2nnc(C(F)(F)F)n2)nn1-c1ccccc1Cl [Example 343] |  |  | ≥ 80 | ≥ 80
27 | 3.95 | Cc1cc(C#N)cc(C(=O)NC(C)(C)C)c1NC(=O)c1cc(Cn2nnc(C(F)(F)F)n2)nn1-c1ccccc1Br [Example 347] |  |  | ≥ 80 | ≥ 80
28 | 4.43 | Cc1cc(Cl)cc(C(=O)NC(C)(C)C)c1NC(=O)c1cc(Cn2nnc(C(F)(F)F)n2)nn1-c1ccccc1Br [Example 348] |  |  | ≥ 80 | ≥ 80
29 | 3.45 | Cc1cc(I)cc(C(=O)NC2CC2)c1NC(=O)c1cc(Cn2nnc(C(F)(F)F)n2)nn1-c1ncccc1Br [Example 350] |  |  | ≥ 80 | ≥ 80
30 | 4.09 | Cc1cc(I)cc(C(=O)NC(C)(C)C)c1NC(=O)c1cc(Cn2nnc(C(F)(F)F)n2)nn1-c1ncccc1Br [Example 352] |  |  | ≥ 80 | ≥ 80
31 | 3.66 | Cc1cc(Br)cc(C(=O)NC(C)C)c1NC(=O)c1cc(Cn2nnc(C(F)(F)F)n2)nn1-c1ncccc1Br [Example 355] |  |  | ≥ 80 | ≥ 80
32 | 4.26 | Cc1cc(Cl)cc(C(=O)NCC2CC2)c1NC(=O)c1cc(Cn2nnc(C(F)(C(F)(F)F)C(F)(F)F)n2)nn1-c1ncccc1Cl [Example 359] |  |  | ≥ 80 | ≥ 80
33 | 4.56 | Cc1cc(Cl)cc(C(=O)NC(C)(C)C)c1NC(=O)c1cc(Cn2nnc(C(F)(C(F)(F)F)C(F)(F)F)n2)nn1-c1ncccc1Cl [Example 362] |  |  | ≥ 80 | ≥ 80
34 | 4.5 | Cc1cc(Cl)cc(C(=O)NC(C)C2CC2)c1NC(=O)c1cc(Cn2nnc(C(F)(C(F)(F)F)C(F)(F)F)n2)nn1-c1ncccc1Cl (stereo not drawn) [Example 366] |  |  | ≥ 80 | ≥ 80
35 | 4.07 | Cc1cc(C#N)cc(C(=O)NC(C)C2CC2)c1NC(=O)c1cc(Cn2nnc(C(F)(C(F)(F)F)C(F)(F)F)n2)nn1-c1ncccc1Cl (stereo not drawn) [Example 368] |  |  | ≥ 80 | ≥ 80
36 | 3.79 | Cc1cc(C#N)cc(C(=O)NC(C)C)c1NC(=O)c1cc(Cn2nnc(C(F)(C(F)(F)F)C(F)(F)F)n2)nn1-c1ncccc1Cl [Example 370] |  |  | ≥ 80 | ≥ 80
37 | 4.1 | Cc1cc(C#N)cc(C(=O)NC(C)(C)C)c1NC(=O)c1cc(Cn2nnc(C(F)(C(F)(F)F)C(F)(F)F)n2)nn1-c1ncccc1Cl [Example 371] |  |  | ≥ 80 | ≥ 80
38 | 3.84 | Cc1cc(C#N)cc(C(=O)NCC2CC2)c1NC(=O)c1cc(Cn2nnc(C(F)(C(F)(F)F)C(F)(F)F)n2)nn1-c1ncccc1Cl [Example 373] |  |  | ≥ 80 | ≥ 80
39 | 3.29 | Cc1cc(C#N)cc(C(=O)NCC#N)c1NC(=O)c1cc(Cn2nnc(C(F)(C(F)(F)F)C(F)(F)F)n2)nn1-c1ncccc1Cl [Example 374] |  |  | ≥ 80 | ≥ 80
40 | 3.57 | Cc1cc(C#N)cc(C(=O)NCC(F)F)c1NC(=O)c1cc(Cn2nnc(C(F)(C(F)(F)F)C(F)(F)F)n2)nn1-c1ncccc1Cl [Example 375] |  |  | ≥ 80 | ≥ 80
